Measurements: patent publication US6605722B2, “Tyrosine derivatives with anti-leukotrienen activity” (Rotta Research Laboratorium S.p.A., priority 2000, dated 2003)
Counter-ions that a name gives are not always drawn.

How the values were obtained:
[1] = biological target: T1, peptide-leukotriene receptor (Cavia porcellus, UniProt Q2NNR5); test: Inhibition of the binding of [3H]-LTD4 to guinea-pig lung membranes; details: for IC50: 0.3 nM [3H]-LTD4, guinea-pig lung membranes, 30 minutes at 25° C., read-out: IC50, concentration of antagonist displacing 50% of the [3H]-LTD4 ligand from the receptor; for affinity compared with the specific LTD4 agonist: guinea-pig lung membranes, nanomolar level
T1 construct: from tissue; host or cells: guinea-pig lung membranes
T1 sequence (Q2NNR5 1-340): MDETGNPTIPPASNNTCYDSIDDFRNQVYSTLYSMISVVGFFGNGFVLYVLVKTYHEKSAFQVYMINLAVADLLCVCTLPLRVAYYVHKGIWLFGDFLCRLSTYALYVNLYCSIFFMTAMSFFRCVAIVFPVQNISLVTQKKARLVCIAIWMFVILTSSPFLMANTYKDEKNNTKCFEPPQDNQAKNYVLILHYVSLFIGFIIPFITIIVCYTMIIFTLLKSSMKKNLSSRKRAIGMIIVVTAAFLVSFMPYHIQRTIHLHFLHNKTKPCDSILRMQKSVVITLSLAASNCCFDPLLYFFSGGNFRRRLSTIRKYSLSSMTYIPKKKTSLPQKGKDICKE
Protocol: The method described by Frey et al. [Eur. J. Pharmacol. 244 (1993): 239-250] was followed, with slight modifications.
The separation of the bound from the free was performed by rapid filtration on Whatman GF/B paper filters.

[2] = Plasma levels in rats (oral bio-availability); type: in vivo; details: 20 mg/kg
Protocol: In addition to the potency shown in vitro in the models given by way of example above, an advantageous and important characteristic of the compounds of the present invention is their optimal oral bio-availability. Thus, for example, Compound 1, administered to rats at a dose of 20 mg/kg, provided a maximum plasma concentration (CMAX) of about 20 mcg/ml 1 hour after administration.

[3] = test system: contractions induced by LTD4 on isolated guinea-pig trachea; test: Antagonism of contractions induced by LTD4 on isolated guinea-pig trachea in vitro (Schild analysis); details: for pA2 calculated according to Schild: LTD4 contraction; for pA2 calculated according to Schild / ED50 of LTD4 (cumulative dose-response curve): isolated guinea-pig trachea
Protocol: J. Physiol. Pharmacol. 67 (1989): 17-28], with slight modifications. […] The results were expressed as the effect as a percentage of the maximum contraction induced by 300 μM acetylcholine.

[4] = test system: sensitized guinea-pigs (ovalbumin challenge); test: Bronchoconstriction after aerosolized ovalbumin challenge in sensitized guinea-pigs; type: in vivo; details: 0.3 mg/kg orally 30 minutes before aerosolized ovalbumin challenge
[5] = Acute toxicity (LD50) in mice; type: in vivo; details: mouse, in vivo
Text: (§1) The compounds according to the invention also have a low toxicity profile.

mice = test: Acute toxicity (LD50) in mice; type: in vivo; details: oral route; effective dose 0.3 mg/kg
Text: as §1

[6] = antagonist concentration 100 nM

Structure (SMILES)	melting point	IC50 [1] [nM]	other results
O=C(NC(Cc1ccc(OCc2ccc3ccccc3n2)cc1)C(=O)O)c1ccccc1 (stereo not shown) (as salt: hydrochloride) [Compound 2]	140 °C	–	–
O=C(NC(Cc1ccc(OCc2ccc3ccccc3n2)cc1)C(=O)O)c1ccc(-c2ccccc2)cc1 (stereo not shown) (as salt: hydrochloride) [Compound 8]	230 °C (dec.)	–	–
O=C(NC(Cc1ccc(OCc2ccc3ccccc3n2)cc1)C(=O)O)c1ccc2ccccc2n1 (racemic) [Compound 1, O-(2-quinolinylmethyl)-N-quinaldoyl-D,L-tyrosine]	–	20	time of maximum plasma concentration after administration [2]: 1 h; AUC ([2]; rat, plasma, oral): ~50000 ng·h/mL; concentration at 8 h ([2]; rat, plasma, oral, 8 h, read-out: plasma concentration 8 h after administration): > 2000 ng/mL; Cmax ([2]; rat, plasma, oral, read-out: maximum plasma concentration (CMAX)): ~20000 ng/mL; pA2 calculated according to Schild [3]: pA2 = 7.88; ED50 of LTD4 (cumulative dose-response curve) ([3]; antagonist concentration 10 nM): 4.53 nM; ED50 of LTD4 (cumulative dose-response curve) ([3]; antagonist concentration 30 nM): 15.31 nM; ED50 of LTD4 (cumulative dose-response curve) [3, 6]: 31.75 nM
O=C(NC(Cc1ccc(OCc2ccc3ccc(F)cc3n2)cc1)C(=O)O)c1ccc2ccccc2n1 (racemic) [Compound 17, O-(7-fluoro-2-quinolinylmethyl)-N-quinaldoyl-D,L-tyrosine]	–	7.9	affinity compared with the specific LTD4 agonist [1]: comparable; inhibition of the signs of bronchoconstriction (first appearance of abdominal contractions) [4]: completely inhibited; pA2 calculated according to Schild [3]: pA2 = 8.53; ED50 of LTD4 (cumulative dose-response curve) ([3]; antagonist concentration 3 nM): 4.69 nM; ED50 of LTD4 (cumulative dose-response curve) ([3]; antagonist concentration 30 nM): 9.48 nM; ED50 of LTD4 (cumulative dose-response curve) ([3]; antagonist concentration 300 nM): 19.78 nM; LD50 ([5]; iv): > 50 mg/kg; LD50 ([5]; po): > 300 mg/kg; acute toxic oral dose in mice relative to the pharmacologically effective dose (mice): more than 1000 times
O=C(NC(Cc1ccc(OCc2ccc3ccccc3n2)cc1)C(=O)O)c1ccccc1 (stereo not shown) [Compound 2]	–	190	–
O=C(NC(Cc1ccc(OCc2ccc3ccccc3n2)cc1)C(=O)O)c1ccc(Cl)cc1 (stereo not shown) [Compound 3]	197 °C	98.1	–
O=C(NC(Cc1ccc(OCc2ccc3ccccc3n2)cc1)C(=O)O)c1cccc(Cl)c1 (stereo not shown) [Compound 4]	187 °C	110	–
COc1ccc(C(=O)NC(Cc2ccc(OCc3ccc4ccccc4n3)cc2)C(=O)O)cc1 (stereo not shown) [Compound 5]	212 °C	117	–
O=C(NC(Cc1ccc(OCc2ccc3ccccc3n2)cc1)C(=O)O)c1ccc(C(F)(F)F)cc1 (stereo not shown) [Compound 6]	211 °C	42.7	–
O=C(NC(Cc1ccc(OCc2ccc3ccccc3n2)cc1)C(=O)O)c1ccccc1-c1ccccc1 (stereo not shown) [Compound 7]	155 °C	181	–
O=C(NC(Cc1ccc(OCc2ccc3ccccc3n2)cc1)C(=O)O)c1ccc(-c2ccccc2)cc1 (stereo not shown) [Compound 8]	–	61.7	–
O=C(NC(Cc1ccc(OCc2ccc3ccc(Cl)cc3n2)cc1)C(=O)O)c1ccc(-c2ccccc2)cc1 (stereo not shown) [Compound 9]	193 °C	217	–
O=C(NC(Cc1ccc(OCc2ccc3ccccc3n2)cc1)C(=O)O)c1ccccn1 (stereo not shown) [Compound 10]	171 °C	32.3	–
O=C(NC(Cc1ccc(OCc2ccc3ccccc3n2)cc1)C(=O)O)c1ccc2ccccc2c1 (stereo not shown) [Compound 11]	196 °C	39	–
O=C(NC(Cc1ccc(OCc2ccc3ccccc3n2)cc1)C(=O)O)c1cnc2ccccc2c1 (stereo not shown) [Compound 12]	230 °C	76	–
O=C(NC(Cc1ccc(OCc2ccc3ccccc3n2)cc1)C(=O)O)c1ccc2ncccc2c1 (stereo not shown) [Compound 13]	248 °C	135	–

Structure (SMILES)	melting point	IC50 [1] [nM]	other results
O=C(NC(Cc1ccc(OCc2ccc3ccccc3n2)cc1)C(=O)O)c1cccc2cccnc12 (stereo not shown) [Compound 14]	141 °C (dec.)	64	–
Cc1ccc2ccc(COc3ccc(CC(NC(=O)c4ccc5ccccc5n4)C(=O)O)cc3)nc2c1 (stereo not shown) [Compound 15]	214 °C	11.3	–
O=C(NC(Cc1ccc(OCc2ccc3ccccc3n2)cc1)C(=O)O)c1ccnc2ccccc12 (stereo not shown) [Compound 16]	224 °C	200	–
O=C(N[C@@H](Cc1ccc(OCc2ccc3ccc(F)cc3n2)cc1)C(=O)O)c1ccc2ccccc2n1 [Compound 18, O-(7-fluoro-2-quinolinylmethyl)-N-quinaldoyl-L-tyrosine]	–	5.5	affinity compared with the specific LTD4 agonist [1]: comparable
O=C(N[C@H](Cc1ccc(OCc2ccc3ccc(F)cc3n2)cc1)C(=O)O)c1ccc2ccccc2n1 [Compound 19, O-(7-fluoro-2-quinolinylmethyl)-N-quinaldoyl-D-tyrosine]	–	12.2	–
O=C(NC(Cc1ccc(OCc2ccc3ccccc3n2)cc1)C(=O)O)c1nccc2ccccc12 (stereo not shown) [Compound 20]	157 °C	64.1	–
O=C(NC(Cc1ccc(OCc2ccc3ccccc3n2)cc1)C(=O)O)c1cc2ccccc2cn1 (stereo not shown) [Compound 21]	204 °C	9.7	–
O=C(NC(Cc1ccc(OCc2ccc3ccc(F)cc3n2)cc1)C(=O)O)c1cc2ccccc2cn1 (stereo not shown) [Compound 22]	227 °C	5.3	affinity compared with the specific LTD4 agonist [1]: comparable; Kb ([3]; Cavia porcellus, equivalent to the calculated pA2): 1.73 nM; ED50 of LTD4 (cumulative dose-response curve) ([3]; antagonist concentration 10 nM): 8.03 nM; ED50 of LTD4 (cumulative dose-response curve) ([3]; antagonist concentration 30 nM): 13.71 nM; ED50 of LTD4 (cumulative dose-response curve) [3, 6]: 25.39 nM
O=C(NC(Cc1ccc(OCc2ccc3ccccc3n2)cc1)C(=O)O)c1cc2ccccc2[nH]1 (stereo not shown) [Compound 23]	223 °C	103	–
O=C(NC(Cc1ccc(OCc2ccc3ccccc3n2)cc1)C(=O)O)c1c[nH]c2ccccc12 (stereo not shown) [Compound 24]	226 °C	55.3	–
Cn1c(C(=O)NC(Cc2ccc(OCc3ccc4ccccc4n3)cc2)C(=O)O)cc2ccccc21 (stereo not shown) [Compound 25]	198 °C	34.8	–
Cn1cc(C(=O)NC(Cc2ccc(OCc3ccc4ccccc4n3)cc2)C(=O)O)c2ccccc21 (stereo not shown) [Compound 26]	180 °C	50.8	–
O=C(NC(Cc1ccc(OCc2ccc3ccccc3n2)cc1)C(=O)O)c1cnc2ccccc2n1 (stereo not shown) [Compound 27]	> 240 °C	161	–
O=C(NC(Cc1ccc(OCc2ccc3ccccc3n2)cc1)C(=O)O)c1cnnc2ccccc12 (stereo not shown) [Compound 28]	232 °C	> 300	–
O=C(NC(Cc1ccc(OCc2ccc3ccccc3n2)cc1)C(=O)O)c1ccc2nc[nH]c2c1 (stereo not shown) [Compound 29]	> 250 °C	90.3	–
O=C(NC(Cc1ccc(OCc2ccc3ccccc3n2)cc1)C(=O)O)c1ccc(-c2ccccc2)cn1 (stereo not shown) [Compound 30]	170 °C	24.1	–
